Laboratory results from article PMC9953885 (Biosensors, 2023).
Structures can show the parent of a compound that is named as a salt.

Target: T1, human pancreatic lipase (hPL) (Homo sapiens, UniProt P16233)
T1 construct: gene PNLIP
T1 sequence (P16233 17-465): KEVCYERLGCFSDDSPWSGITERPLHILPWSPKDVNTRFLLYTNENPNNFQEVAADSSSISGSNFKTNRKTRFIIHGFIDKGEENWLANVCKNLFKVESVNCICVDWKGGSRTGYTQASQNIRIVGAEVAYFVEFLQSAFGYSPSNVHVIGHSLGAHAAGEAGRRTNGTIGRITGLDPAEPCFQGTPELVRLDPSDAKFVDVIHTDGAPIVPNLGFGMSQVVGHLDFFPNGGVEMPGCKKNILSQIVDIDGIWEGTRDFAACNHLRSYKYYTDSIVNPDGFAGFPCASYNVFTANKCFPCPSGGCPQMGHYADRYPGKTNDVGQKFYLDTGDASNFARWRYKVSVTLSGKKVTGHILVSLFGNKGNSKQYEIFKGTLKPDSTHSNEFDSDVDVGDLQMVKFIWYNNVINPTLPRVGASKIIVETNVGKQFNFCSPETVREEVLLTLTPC
Details: 10 µM; inhibitor
Procedure: First, we evaluated the inhibitory effect of 94 natural products derived from herbs and 94 drugs on hPL. In our high-throughput screening system, 1 ug/mL hPL was used, and the final concentration of the 94 natural products derived from herbs and 94 drugs used was 10 μM. Other conditions were the same as in the selectivity experiments. […] RLE was incubated with hPL and various enzymes, such as hCES1A, hCES2A, CA, AchE, BchE, 5-HKE, lysozyme, trypsin, thrombin, α-CT, FAP, PREP, pepsin, α-amylase, plasmin, notum and hSA, in a 100 µL incubation mixture consisting of Tris-HCl (pH = 7.4, 25 mM), NaCl (150 mM), CaCl2 (1 mM) and porcine bile salt (0.1 mg/mL) at a concentration of 1.5 µg/mL. The reaction was initiated by adding RLE to the preincubated enzyme mixture at 37 °C, and metabolite formation was determined by measuring the fluorescence intensity of resorufin at 590 nm. In addition, several amino acids (IIe, His, Trp, Val, Leu, Tyr, Ala, Thr, Pro, Asp, Lys, Met, Cys, Ser, Phe, Gly, Glu and Gln), ions (Ni^2+, Ca^2+, Na^+, K^+, Cu^2+, Zn^2+, Mg^2+, NH4^+, Cu^+, Fe^2+ and CN^-) and GSH were measured. The concentration of these interfering factors was 5 μM. […] In this case, a visual high-throughput assay was established to screen hPL inhibitors, using RLE as a fluorogenic substrate in a 96-well microplate.

| SMILES | % of control remaining [%] |
| --- | --- |
| COc1ccc(-c2cc(=O)c3c(OC)c(OC)c(OC)c(OC)c3o2)cc1OC [Nobiletin] | 80.44 |
| CC1(C)OC(=O)C=C[C@]2(C)[C@H]3CC[C@@]4(C)[C@H](c5ccoc5)OC(=O)[C@H]5O[C@]54[C@]3(C)C(=O)C[C@@H]12 [Obacunon] | 79.60 |
| CC1COc2c(N3CCN(C)CC3)c(F)cc3c(=O)c(C(=O)O)cn1c23 (centres unmarked) [Ofloxacin] | 87.95 |
| COc1ccc2[nH]c([S+]([O-])Cc3ncc(C)c(OC)c3C)nc2c1 (centres unmarked) [Omeprazole] | 94.84 |
| C=C1C(=O)[C@]23[C@H](O)[C@H]1CC[C@H]2[C@@]12CO[C@]3(O)[C@@H](O)[C@@H]1C(C)(C)CC[C@@H]2O [Oridonin] | 66.82 |
| O=c1cc(-c2ccc(O)c(O)c2)oc2c([C@@H]3O[C@H](CO)[C@@H](O)[C@H](O)[C@H]3O)c(O)cc(O)c12 [Orientin] | 76.06 |
| CCOC(=O)C1=C[C@@H](OC(CC)CC)[C@H](NC(C)=O)[C@@H](N)C1 [Oseltamivir phosphate] | 101.77 |
| O=C(O)CCc1nc(-c2ccccc2)c(-c2ccccc2)o1 [Oxaprozin] | 81.83 |
| O=C1C=CC[C@@H]2[C@H]3CCC[N+]4([O-])CCC[C@@H](CN12)[C@@H]34 (some centres unmarked) [Oxysophocarpine] | 98.58 |
| COc1cc2c(cc1OC)-c1cc3ccc(OC)c(OC)c3c[n+]1CC2 [Palmatine chloride] | 87.01 |
| O=C(CCc1ccc(O)cc1)c1c(O)cc(O)cc1O [Phloretin] | 81.23 |
| O=C(CCc1ccc(O)cc1)c1c(O)cc(O)cc1O[C@@H]1O[C@H](CO)[C@@H](O)[C@H](O)[C@H]1O [Phlorizin dihydrate] | 85.09 |
| COc1c(OC)c2occc2c2oc(=O)ccc12 [Pimpinellin] | 61.25 |
| O=C1C[C@@H](c2ccccc2)Oc2cc(O)cc(O)c21 [Pinocembrin] | 91.25 |
| C[C@@H]1O[C@@H](O[C@H]2[C@H](OC(=O)[C@]34CCC(C)(C)C[C@H]3C3=CC[C@@H]5[C@@]6(C)C[C@H](O)[C@H](O[C@@H]7O[C@H](CO)[C@@H](O)[C@H](O)[C@H]7O)C(CO)(CO)[C@@H]6CC[C@@]5(C)[C@]3(C)C[C@H]4O)OC[C@H](O)[C@@H]2O)[C@H](O)[C@H](O)[C@H]1O[C@@H]1OC[C@@H](O)[C@H](O[C@@H]2OC[C@](O)(CO)[C@H]2O)[C@H]1O [Platycodin D] | 89.14 |
| C/C=C(/C)C(=O)O[C@H]1[C@@H](OC(=O)CC(C)C)c2c(ccc3ccc(=O)oc23)OC1(C)C [Praeruptorin E] | 87.81 |
| C[C@]12C=CC(=O)C=C1CC[C@@H]1[C@@H]2[C@@H](O)C[C@@]2(C)[C@H]1CC[C@]2(O)C(=O)CO [Prednisolone] | 82.34 |
| CCCN(CCC)S(=O)(=O)c1ccc(C(=O)O)cc1 [Probenecid] | 93.75 |
| Oc1cc(O)c2c(c1)OC(c1ccc(O)c(O)c1)C(OC1(c3ccc(O)c(O)c3)Oc3cc(O)cc(O)c3C(O)C1O)C2 (centres unmarked) [Procyanidin] | 5.72 |
| O=c1c(O)c(-c2ccc(O)c(O)c2)oc2cc(O)cc(O)c12 [Quercetin] | 47.29 |
| C=C[C@H]1CN2CC[C@H]1C[C@@H]2[C@@H](O)c1ccnc2ccc(OC)cc12 [Quinidine] | 100.77 |
| CCC(CC)COC(=O)[C@H](C)N[P@](=O)(OC[C@H]1O[C@@](C#N)(c2ccc3c(N)ncnn23)[C@H](O)[C@@H]1O)Oc1ccccc1 [Remdesivir] | 98.67 |
| COC(=O)[C@H]1[C@H]2C[C@@H]3c4[nH]c5cc(OC)ccc5c4CCN3C[C@H]2C[C@@H](OC(=O)c2cc(OC)c(OC)c(OC)c2)[C@@H]1OC [Reserpine] | 94.24 |
| CC(C)c1nc(CN(C)C(=O)N[C@H](C(=O)N[C@@H](Cc2ccccc2)C[C@H](O)[C@H](Cc2ccccc2)NC(=O)OCc2cncs2)C(C)C)cs1 [Ritonavir] | 97.04 |
| O=C(NC[C@H]1CN(c2ccc(N3CCOCC3=O)cc2)C(=O)O1)c1ccc(Cl)s1 [Rivaroxaban] | 118.66 |
| COc1ccc(-c2cc(=O)c3c(O)c(OC)c(OC)cc3o2)cc1 [Salvigenin] | 75.70 |
| Oc1ccc2c(c1)OCO2 [Sesamol] | 103.95 |

| SMILES | % of control remaining [%] |
| --- | --- |
| CC(C)=CC[C@@H](O)C1=CC(=O)c2c(O)ccc(O)c2C1=O [Shikonin] | 107.55 |
| CCC(C)(C)C(=O)O[C@H]1C[C@@H](C)C=C2C=C[C@H](C)[C@H](CC[C@@H]3C[C@@H](O)CC(=O)O3)[C@H]21 [Simvastatin] | 84.18 |
| COC1=C[C@@H]2[C@@H]3Cc4ccc(OC)c(O)c4[C@]2(CCN3C)CC1=O [Sinomenine] | 101.42 |
| CC1(C)[C@H](C(=O)O)N2C(=O)C[C@H]2S1(=O)=O [Sulbactam sodium] | 88.89 |
| Cc1cc(NS(=O)(=O)c2ccc(N)cc2)no1 [Sulfamethoxazole] | 98.83 |
| O=C1c2c(O)cc(O)cc2O[C@H](c2ccc(O)c(O)c2)[C@H]1O [TGaxifolin] | 97.17 |
| CC(C)OC(=O)OCOP(=O)(CO[C@H](C)Cn1cnc2c(N)ncnc21)OCOC(=O)OC(C)C [Tenofovir disoproxil] | 91.86 |
| CN(C/C=C/C#CC(C)(C)C)Cc1cccc2ccccc12 [Terbinafine Hydrochloride] | 91.01 |
| CC(C)(C)NCC(O)c1cc(O)cc(O)c1 (centres unmarked) [Terbutaline] | 108.89 |
| CCC(=O)O[C@H]1CC[C@H]2[C@@H]3CCC4=CC(=O)CC[C@]4(C)[C@H]3CC[C@]12C [Testosterone propionate] | 65.37 |
| CCN(CC)CCNC(=O)c1cc(S(C)(=O)=O)ccc1OC [Tiapride] | 108.20 |
| C[C@H]1CC[C@@]2(OC1)O[C@H]1C[C@H]3[C@@H]4CC[C@@H]5C[C@@H](O[C@@H]6O[C@H](CO)[C@H](O)[C@H](O)[C@H]6O[C@@H]6O[C@H](CO)[C@@H](O)[C@H](O)[C@H]6O)CC[C@]5(C)[C@H]4CC[C@]3(C)[C@H]1[C@@H]2C [Timosaponin A-III] | 95.12 |
| CC(=O)O[C@@H]1C[C@H](O)[C@@]23CO[C@@H](O)[C@]1(C)[C@@H]2C[C@@H](O)[C@]1(C)[C@@H]3C(=O)[C@H](OC(C)=O)[C@@]2(C)[C@H](c3ccoc3)C[C@H]3O[C@]321 [Toosendanin] | 72.37 |
| CN[C@H](CC(C)C)C(=O)N[C@H]1C(=O)N[C@@H](CC(N)=O)C(=O)N[C@H]2C(=O)N[C@H]3C(=O)N[C@H](C(=O)N[C@H](C(=O)O)c4cc(O)cc(O)c4-c4cc3ccc4O)[C@H](O)c3ccc(c(Cl)c3)Oc3cc2cc(c3O[C@@H]2O[C@H](CO)[C@@H](O)[C@H](O)[C@H]2O[C@H]2C[C@](C)(N)[C@H](O)[C@H](C)O2)Oc2ccc(cc2Cl)[C@H]1O [Vancomycin] | 96.04 |
| COc1cc2/c(=N/c3ccc(Br)cc3F)nc[nH]c2cc1OCC1CCN(C)CC1 [Vandetanib] | 104.95 |
| CC(=O)CC(c1ccccc1)c1c(O)c2ccccc2oc1=O (centres unmarked) [Warfarin sodium] | 84.05 |
| COc1c(O)cc(O)c2c(=O)cc(-c3ccccc3)oc12 [Wogonin] | 106.17 |
| COc1cc(O)c2c(c1C(=O)/C=C/c1ccc(O)cc1)OC(C)(C)C(O)C2 (centres unmarked) [Xanthohumol L] | 100.78 |
| COc1cc(O)c(CC=C(C)C)c(O)c1C(=O)/C=C/c1ccc(O)cc1 [Xanthohumol] | 81.19 |
| CCC/C=C1\OC(=O)C2=C1CCC=C2 [Z-Ligustilide] | 83.60 |
| Cc1cn([C@H]2C[C@H](N=[N+]=[N-])[C@@H](CO)O2)c(=O)[nH]c1=O [Zidovudine] | 73.04 |
| CC(NC(C)(C)C)C(=O)c1cccc(Cl)c1 (centres unmarked) [bupropion hydrochloride] | 120.79 |
| O=C(O)Cc1ccccc1Nc1c(Cl)cccc1Cl [diclofenzc] | 97.62 |
| COc1c(O)c(O)cc2oc(-c3ccc(O)c(O)c3)c(O)c(=O)c12 [g2, 2-(3,4-Dihydroxyphenyl)-3,6,7-trihydroxy-5-methoxy-4H-1-benzopyran-4-one] | 59.87 |
| O=C(O)/C=C/c1ccc(O)cc1 [p-Coumaric acid] | 98.98 |
| COC(=O)[C@@]1(C)CC[C@]2(C(=O)O)CC[C@]3(C)C(=CC[C@@H]4[C@@]5(C)C[C@H](O)[C@H](O)[C@@](C)(CO)[C@@H]5CC[C@]43C)[C@@H]2C1 [phytolaccagenin] | 85.42 |
